Values quoted from earlier work, collected in publication PMC7714071, “Interaction of amyloid beta with humanin and acetylcholinesterase is modulated by ATP” (FEBS Open Bio, 2020).

What was measured:
[1] = system: Aβ42; settings: binds directly to Aβ42; cited from earlier work
Excerpt: Almost all types of cells produce amyloid beta (Aβ), a peptide well recognized for its role in the development and progression of different stages of Alzheimer's disease (AD). The Aβ peptide is ~ 4 kDa and derived from the sequential processing of the higher molecular weight amyloid precursor protein by two membrane‐bound endoproteases, β‐ and γ‐secretase. Different C‐terminal Aβ heterogeneity results from processing by γ‐secretase, where Aβ40 represents the most abundant isoform (~ 90%) as compared to Aβ42 (~ 10%). Self‐assembled Aβ40/42 peptides into amyloid fib ... || Amino acid residues involved in direct interactions between HN and Aβ40 were identified previously by molecular modeling. The specific epitopes at the binding interface between HN and Aβ40 were identified, by proteolytic epitope excision and extraction in addition to affinity–mass spectrometric data analysis, to be HN (5–15) and Aβ (17–28). […] Inhibiting the 17–28 region of Aβ reduced aggregation of the neurotoxic amyloid fibrils and related cytotoxicity in SH‐SY5Y, a human neuroblastoma cell ... || Acetylcholinesterase (AChE) is an enzyme known for its role in terminating acetylcholine‐mediated neurotransmission at the synaptic cleft. The majority of the cortical AChE in the Alzheimer's brain is mainly associated with the amyloid core of senile plaques. […]

[2] = system: Aβ40; settings: cited from earlier work
Excerpt: Almost all types of cells produce amyloid beta (Aβ), a peptide well recognized for its role in the development and progression of different stages of Alzheimer's disease (AD). The Aβ peptide is ~ 4 kDa and derived from the sequential processing of the higher molecular weight amyloid precursor protein by two membrane‐bound endoproteases, β‐ and γ‐secretase. Different C‐terminal Aβ heterogeneity results from processing by γ‐secretase, where Aβ40 represents the most abundant isoform (~ 90%) as compared to Aβ42 (~ 10%). Self‐assembled Aβ40/42 peptides into amyloid fib ... || Humanin (HN) is a secreted 21‐ to 24‐amino acid mitochondrial‐derived peptide. Certain amino acid residues in HN have been identified to be involved in different functions, including binding to Aβ [55, 56]. […] HN was identified previously as a binding partner of Aβ, likely modulating its aggregation pathways and counteracting its deleterious effects. […] The specific epitopes at the binding interface between HN and Aβ40 were identified, by proteolytic epitope excision and extraction in addition to affinity–mass spectrometric data analysis, to be HN (5–15) and Aβ (17–28). […] Inhibiting the 17–28 region of Aβ reduced aggregation of the neurotoxic amyloid fibrils and related cytotoxicity in SH‐SY5Y, a human neuroblastoma cell ... || (+ 1 further places)

[3] = system: Aβ42; settings: HN and AChE compared; cited from earlier work
Excerpt: Humanin has been previously reported to bind amino acid residues 17–28 of Aβ (Fig. 1). AChE is also known to bind Aβ (1–16) and the Aβ (12–28) region (Fig. 1). Since the binding sites of AChE and HN on Aβ are overlapping, we previously investigated whether HN and AChE can simultaneously bind Aβ [79].

## Humanin [HN]
[1]
  antioligomeric activity: exhibit antioligomeric activity
[2]
  morphology of Aβ40: from fibrillary to amorphous
[3]
  affinity for Aβ42: comparable affinities
